Experimental data: patent US6448374B1, “Production of phosphopeptides from casein” (The University of Melbourne, priority 1991, dated 2002)
Where no end group is shown, it is not given here. [ ]: non-standard residue; d: D form. pS = N[C@@H](COP(=O)(O)O)C(=O)O

Experiments:
[1] = calcium binding of the phosphopeptide; type: physicochemical; conditions: calcium phosphate ACPP
Description: (§1) The calcium ACPP can be converted to calcium phosphate ACPP by addition of CaCl2 and Na2HPO4 where the Ca/P final ratio is 1.67. The peptide αs1(59-79) can bind 21 Ca and 13 PO4. The filtrate of the above process is suited for the purification of other bioactive casein peptides by size and charge-based separation technologies and can be used as microbiological growth media, as dietary supplements after debittering or as a nitrogen fertilizer.

[2] = phosphate binding of the phosphopeptide; type: physicochemical; conditions: calcium phosphate ACPP
Description: as §1

[3] = phosphopeptides released by tryptic digestion of casein; from Australian Patent No. 593365; cited from earlier work

Substance	Ca bound per peptide [1]	PO4 bound per peptide [2]	anticariogenic (tooth-decay-inhibiting) activity [3]
αs1(59-79): casein tryptic phosphopeptide containing -Ser(P)-Ser(P)-Ser(P)-Glu-Glu- (QMEAESI[pS][pS][pS]EEIVPNSVEQK; ends and bridges not checked; also: other serines' phosphorylation not given here)	21 Ca	13 PO4	anticariogenic (tooth-decay-inhibiting) activity
β(2-25): casein tryptic phosphopeptide containing -Ser(P)-Ser(P)-Ser(P)-Glu-Glu- (ELEELNVPGEIVESL[pS][pS][pS]EESITR; ends and bridges not checked; also: other serines' phosphorylation not given here)			anticariogenic (tooth-decay-inhibiting) activity
αs2(2-21): casein tryptic phosphopeptide containing -Ser(P)-Ser(P)-Ser(P)-Glu-Glu- (NTMEHV[pS][pS][pS]EESIISQETYK; ends and bridges not checked; also: other serines' phosphorylation not given here)			anticariogenic (tooth-decay-inhibiting) activity
αs2(46-70): casein tryptic phosphopeptide containing -Ser(P)-Ser(P)-Ser(P)-Glu-Glu- (NANEEEYSIG[pS][pS][pS]EESAEVATEEVK; ends and bridges not checked; also: other serines' phosphorylation not given here)			anticariogenic (tooth-decay-inhibiting) activity
